Laboratory results: patent publication US20230210853A1 (Halia Therapeutics, Inc., priority 2020, published 2023)
Read-outs that look alike come from different tables or passages of the source.

Tests used:
[1] = system: IL-1β release; assay: IL-1β release assay (PMA-differentiated THP-1 cells, LPS + nigericin, cleaved IL-1β by JESS); assay type: cell-based; conditions: Homo sapiens
Experimental: (§1) Approximately 1.5 million THP-1 cells were plated in each well of a 6-well TC plate and incubated with 40 nM PMA in RPMI (10% FBS, 1% Penstrep) for 24 hours. The media was then removed and cells were rested in RPMI (10% FBS, 1% Penstrep) for 24 hours after which time the media was removed and cells were pre-treated for 2 hours with various concentrations of compounds of interest (typically serial 3-fold dilution in RPMI +5% FBS, concentrations ranging from 1 μM to 0.5 nM) in RPMI (5% FBS). The media was again removed and cells were incubated with 250 ng/mL LPS and compounds of interest (concentrations as above) in RMPI (5% FBS) for 2 hours. The media was removed for a last time and cells were incubated with 20 μM nigericin and compounds of interest (concentrations as above) in Opti-MEM for 30 minutes. Cell media was then collected and the amount of cleaved IL-1β was determined using a JESS instrument (Protein Simple) and standard protocols. Cleaved 1-PD antibody was obtained from Cell Signaling (catalogue #83186S) and was used at 1:20 dilution in antibody diluent 2. Protein Simple 1× anti-Rabbit HRP secondary antibody was used along with Protein Simple luminol and peroxide for chemiluminescent detection. Primary antibody incubation time was increased from 30 minutes to 60 minutes.
as §1, with “RPMI+5%” for “RPMI +5%”, “Il-1β” for “1-PD”

[2] = target: T1, full-length recombinant human NEK7 (Homo sapiens, UniProt Q8TDX7); assay: NEK7 enzymatic assay ([33P]-ATP, casein substrate); assay type: biochemical
T1 construct: full-length recombinant human NEK7; GST (N); purchased SignalChem N09-10G; host or cells: Sf9 insect cells (baculovirus)
Procedure, shortened: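 GST-tagged enzyme, baculovirus-expressed in Sf9 cells, was mixed with casein in 20 mM Hepes pH 7.5, 10 mM MgCl2, 1 mM EGTA, 0.02% Brij35, 2 mM DTT, 1% DMSO. Compounds (3-fold series, 10 μM–0.5 nM) were preincubated 20 min at RT, then [33P]-ATP was added for 2 h at RT. P81 filter-bound radioactivity was expressed as % of vehicle activity and fitted to IC50.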

[3] = THP-1, comparative compounds of Structure (II), read-out: IL-1β release IC50
[4] = comparative compounds of Structure (II)
[5] = Table 2a, THP-1 cells, LPS + nigericin, read-out: II-1β release IC50
[6] = Table 2a, recombinant human NEK7, casein substrate
[7] = Table 2b, THP-1 cells, LPS + nigericin, read-out: Il-1β release IC50
[8] = Table 2b, recombinant human NEK7, casein substrate
[9] = Table 2e, recombinant human NEK7, casein substrate

T1 sequence (Q8TDX7 whole entry): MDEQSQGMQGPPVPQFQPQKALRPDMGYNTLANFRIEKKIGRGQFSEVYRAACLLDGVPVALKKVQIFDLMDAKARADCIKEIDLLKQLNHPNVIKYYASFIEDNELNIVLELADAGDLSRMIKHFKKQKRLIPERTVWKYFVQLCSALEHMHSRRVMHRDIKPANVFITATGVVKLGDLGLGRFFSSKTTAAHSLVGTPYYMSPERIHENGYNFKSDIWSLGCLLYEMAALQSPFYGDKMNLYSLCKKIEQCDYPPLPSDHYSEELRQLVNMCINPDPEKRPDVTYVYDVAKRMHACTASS

Work on `CC(C)n1nc(-c2ccc3c(c2F)CCN3C(=O)Cc2cc(C(F)(F)F)ccc2F)c2c(N)ncnc21` [II-11, 1-(5-(4-amino-1-isopropyl-1H-pyrazolo[3,4-d]pyrimidin-3-yl)-4-fluoroindolin-l-yl)-2-(2-fluoro-5-(trifluoromethyl)phenyl)ethan-1-one] yielded an IC50 [1, 3] greater than 1000 nM and an IC50 [2, 4] of less than 150 nM.

For `Nc1ncnc2c1c(-c1ccc3c(c1F)CCN3C(=O)Cc1cc(C(F)(F)F)ccc1F)nn2C1COC1` [II-12, 1-(5-(4-amino-1-(oxetan-3-yl)-1H-pyrazolo[3,4-d]pyrimidin-3-yl)-4-fluoroindolin-1-yl)-2-(2-fluoro-5-(trifluoromethyl)phenyl)ethan-1-one], the IC50 [1, 3] was greater than 1000 nM and the IC50 [2, 4] was less than 150 nM.

`Nc1ncnc2c1c(-c1ccc3c(c1F)CCN3C(=O)Cc1ccc(F)c(C(F)(F)F)c1)nn2C1CCOCC1` [II-14, 1-(5-(4-amino-1-(tetrahydro-2H-pyran-4-yl)-1H-pyrazolo[3,4-d]pyrimidin-3-yl)-4-fluoroindolin-1-yl)-2-(4-fluoro-3-(trifluromethyl)phenyl)ethan-1-one] gave an IC50 [1, 3] greater than 1000 nM and an IC50 [2, 4] of less than 150 nM.

`Nc1ncnc2c1c(-c1ccc3c(c1Cl)CCN3C(=O)Cc1cc(C(F)(F)F)ccc1F)cn2C1CC1` [II-16, 1-(5-(4-amino-7-cyclopropyl-7H-pyrrolo[2,3-d]pyrimidin-5-yl)-4-chloroindolin-1-yl)-2-(2-fluoro-5-(trifluoromethyl)phenyl)ehtan-1-one] showed an IC50 [1, 3] greater than 1000 nM and an IC50 [2, 4] of less than 150 nM.

`Nc1ncnc2c1c(-c1ccc3c(c1F)CCN3C(=O)Cc1cc(C(F)(F)F)ccc1F)cn2C1CC1` [II-17, 1-(5-(4-amino-7-cyclopropyl-7H-pyrrolo[2,3-d]pyrimidin-5-yl)-4-fluoroindolin-1-yl)-2-(2-fluoro-5-(trifluoromethyl)phenyl)ethan-1-one] was tested, and the IC50 [1, 3] was greater than 1000 nM and the IC50 [2, 4] was less than 150 nM.

For `CC(C)(C)c1cc(NC(=O)Nc2ccc(-c3nn(C4COC4)c4ncnc(N)c34)cc2F)on1` [Ia-12, 1-(4-(4-amino-1-(oxetan-3-yl)-1H-pyrazolo[3,4-d]pyrimidin-3-yl)-2-fluorophenyl)-3-(3-(tert-butyl)isoxazol-5-yl)urea], the IC50 [1, 5] was less than 150 nM and the IC50 [2, 6] was less than 150 nM.

Compound `CC(C)(C)c1cc(NC(=O)Nc2ccc(-c3nn(C4CC4)c4ncnc(N)c34)cc2F)on1` [Ia-13, 1-(4-(4-amino-1-cyclopropyl-1H-pyrazolo[3,4-d]pyrimidin-3-yl)-2-fluorophenyl)-3-(3-(tert-butyl)isoxazol-5-yl)urea] has an IC50 [1, 5] of less than 150 nM and an IC50 [2, 6] of less than 150 nM.

Compound `CC(C)(C)c1cc(NC(=O)Nc2ccc(-c3nn(C4CCN(C5COC5)CC4)c4ncnc(N)c34)cc2F)on1` [Ia-14, 1-(4-(4-amino-1-(1-(oxetan-3-yl)piperidin-4-yl)-1H-pyrazolo[3,4-d]pyrimidin-3-yl)-2-fluorophenyl)-3-(3-(tert-butyl)isoxazol-5-yl)urea] has an IC50 [1, 5] of less than 150 nM and an IC50 [2, 6] of less than 150 nM.

Work on `Nc1ncnc2c1c(-c1ccc(NC(=O)Nc3cc(C4(C(F)(F)F)CC4)no3)c(F)c1)nn2C1CC1` [Ia-21] yielded an IC50 [1, 5] of less than 150 nM and an IC50 [2, 6] of less than 150 nM.

`Nc1ncnc2c1c(-c1ccc(NC(=O)Nc3cc(C4(C(F)(F)F)CC4)on3)c(F)c1)nn2C1CC1` [Ia-25, 1-(4-(4-amino-1-cyclopropyl-1H-pyrazolo[3,4-d]pyrimidin-3-yl)-2-fluorophenyl)-3-(5-(1-(trifluoromethyl)cyclopropyl)isoxazol-3-yl)urea] was tested, and the IC50 [1, 5] was less than 150 nM and the IC50 [2, 6] was less than 150 nM.

Compound `CC(C)(C)c1cc(NC(=O)Nc2ccc(-c3nn(C4CC4)c4ccnc(N)c34)cc2F)on1` [Ia-30, 1-(4-(4-amino-1-cyclopropyl-1H-pyrazolo[4,3-c]pyridin-3-yl)-2-fluorophenyl)-3-(3-(tert-butyl)isoxazol-5-yl)urea] has an IC50 [1, 5] of less than 150 nM and an IC50 [2, 6] of less than 150 nM.

Compound `CC1(c2cc(NC(=O)Nc3ccc(-c4nn(C5CC5)c5ncnc(N)c45)cc3F)on2)CC1` [Ia-32, 1-(4-(4-amino-1-cyclopropyl-1H-pyrazolo[3,4-d]pyrimidin-3-yl)-2-fluorophenyl)-3-(3-(1-methylcyclopropyl)isoxazol-5-yl)urea] has an IC50 [1, 5] of 151 to 300 nM and an IC50 [2, 6] of less than 150 nM.

For `CC(C)(C)c1nnc(NC(=O)Nc2ccc(-c3nn(C4CC4)c4ncnc(N)c34)cc2F)s1` [Ia-33, 1-(4-(4-amino-1-cyclopropyl-1H-pyrazolo[3,4-d]pyrimidin-3-yl)-2-fluoropbenyl)-3-(5-(tert-butyl)-1,3,4-thiadiazol-2-yl)urea], the IC50 [1, 5] was 301 to 500 nM and the IC50 [2, 6] was 501 to 1500 nM.

For `Nc1nccc2c1c(-c1ccc(NC(=O)Nc3cc(C4(C(F)(F)F)CC4)no3)c(F)c1)nn2C1CC1` [Ia-45, 1-(4-(4-amino-1-cyclopropyl-1H-pyrazolo[4,3-c]pyridin-3-yl)-2-fluorophenyl)-3-(3-(1-(trifluoromethyl)cyclopropyl)isoxazol-5-yl)urea], the IC50 [1, 5] was 151 to 300 nM and the IC50 [2, 6] was 151 to 300 nM.

With `Cc1c[nH]c2nccc(Oc3ccc(NC(=O)Nc4cc(C(C)(C)C)nn4-c4ccccc4)c(F)c3)c12` [Ib-4, 1-(3-(tert-butyl)-1-phenyl-1H-pyrazol-5-yl)-3-(2-fluoro-4-((3-methyl-1H-pyrrolo[2,3-b]pyridin-4-yl)oxy)phenyl)urea] the IC50 [1, 7] was less than 150 nM and the IC50 [2, 8] was 501 to 1500 nM.

`Cc1cc2c(Oc3ccc(NC(=O)Nc4cc(C(C)(C)C)nn4-c4ccccc4)c(F)c3)ccnc2[nH]1` [Ib-5, 1-(3-(tert-butyl)-1-phenyl-1H-pyrazol-5-yl)-3-(2-fluoro-4-((2-methyl-1H-pyrrolo[2,3-b]pyridin-4-yl)oxy)phenyl)urea] gave an IC50 [1, 7] of 151 to 300 nM and an IC50 [2, 8] greater than 1500 nM.

`CC(C)(C)c1cc(NC(=O)Nc2c(F)cc(Oc3ccnc4[nH]cc(Cl)c34)cc2F)n(-c2ccccc2)n1` [Ib-8] showed an IC50 [1, 7] of 301 to 500 nM and an IC50 [2, 8] greater than 1500 nM.

For `CC(C)(C)c1cc(NC(=O)Nc2ccc(Oc3ccnc4[nH]cc(Cl)c34)c(F)c2)n(-c2ccccc2)n1` [Ib-12, 1-(3-(tert-butyl)-1-phenyl-1H-pyrazol-5-yl)-3-(4-((3-chloro-1H-pyrrolo[2,3-b]pyridin-4-yl)oxy)-3-fluorophenyl)urea], the IC50 [1, 7] was less than 150 nM and the IC50 [2, 8] was 501 to 1500 nM.

For `Cc1[nH]c2nccc(Oc3ccc(NC(=O)Nc4cc(C(C)(C)C)nn4-c4ccccc4)c(F)c3)c2c1Cl` [Ib-14], the IC50 [1, 7] was greater than 1000 nM and the IC50 [2, 8] was 501 to 1500 nM.

`CC(C)(C)c1cc(NC(=O)Nc2ccc(Oc3ccnc4[nH]cc(C5CC5)c34)cc2F)n(-c2ccccc2)n1` [Ib-18, 1-(3-(tert-butyl)-1-phenyl-1H-pyrazol-5-yl)-3-(4-((3-cyclopropyl-1H-pyrrolo[2,3-b]pyridin-4-yl)oxy)-2-fluorophenyl)urea] gave an IC50 [1, 7] of less than 150 nM and an IC50 [2, 8] of 501 to 1500 nM.

In the case of `COc1cc(CN2CCN(C)CC2)ccc1NC(=O)Nc1ccc(Oc2ccnc3[nH]cc(Cl)c23)cc1F` [Ie-40, 1-(4-((3-chloro-1H-pyrrolo[2,3-b]pyridin-4-yl)oxy)-2-fluorophenyl)-3-(2-methoxy-4-((4-methylpiperazin-1-yl)methyl)phenyl)urea], the IC50 [2, 9] is reported as greater than 1500 nM.

For `O=C(Nc1ccc(CN2CCN(CCO)CC2)c(C(F)(F)F)c1)Nc1ccc(Oc2ccnc3[nH]cc(Cl)c23)cc1F` [Ie-41, 1-(4-((3-chloro-1H-pyrrolo[2,3-b]pyridin-4-yl)oxy)-2-fluorophenyl)-3-(4-((4-(2-hydroxyethyl)piperazin-1-yl)methyl)-3-(trifluoromethyl)phenyl)urea], the IC50 [2, 9] was greater than 1500 nM.

In the case of `COCCN1CCN(Cc2ccc(NC(=O)Nc3ccc(Oc4ccnc5[nH]cc(Cl)c45)cc3F)cc2C(F)(F)F)CC1` [Ie-42, 1-(4-((3-chloro-1H-pyrrolo[2,3-b]pyridin-4-yl)oxy)-2-fluorophenyl)-3-(4-((4-(2-methoxyethyl)piperazin-1-yl)methyl)-3-(trifluoromethyl)phenyl)urea], the IC50 [2, 9] is reported as greater than 1500 nM.

`COc1cc(NC(=O)Nc2ccc(Oc3ccnc4[nH]cc(Cl)c34)cc2F)ccc1CN1CCN(C)CC1` [Ie-43, 1-(4-((3-chloro-1H-pyrrolo[2,3-b]pyridin-4-yl)oxy)-2-fluorophenyl)-3-(3-methoxy-4-((4-methylpiperazin-1-yl)methyl)phenyl)urea] was tested, and the IC50 [2, 9] was greater than 1500 nM.
